Laboratory results published in patent US20020111318A1, “Process for the preparation of non-hygroscopic azithromycin dihydrate” (priority 2001, published 2002).

What was measured:
gram negative organisms = settings: Dunn and Barradell, Drugs 1996; cited from earlier work
[1] = Moisture uptake of crystals on exposure to ambient atmosphere (hygroscopicity); assay type: physicochemical
Description: 9-Deoxo-9a-aza-9a-homoerythromycin A (73.5 g-0.1 mole) was dissolved in 250 ml acetone. To this solution, formic acid (19 ml) followed by formaldehyde (37%, 20 ml) were added and refluxed for 24 hrs. The pH of the reaction mixture was adjusted with alkali to 10.5 and filtered to remove particles. To the filtered acetone solution equal volume of water was added to precipitate azithromycin hygroscopic monohydrate as cube shaped crystals. The crystals were filtered and dried under vacuum at 50° C. to give 65 g of azithromycin monohydrate melting at 130-131° C. having a water content of 3.42% (by Karl Fischer titration method). This sample of hygroscopic monohydrate has a characteristic solid state (KBr pellet) IR spectrum (FIG. 1) and a characteristic x-ray diffraction pattern (FIG. 4).
10 gms of hygroscopic azithromycin-monohydrate was suspended in a mixture of iso-propanol (10 ml) and water (10 ml) and stirred at ambient temperature. The transformation of cubical crystals of monohydrate form to the rhomboid form crystals of dihydrate was followed by checking the crystal habit under a microscope at every two hour interval. At 16 hours the rhomboid dihydrate crystals only were seen. The slurry was filtered and dried under vacuum at 50° C. to give 9.8 g of azithromycin dihydrate. […] It has a characteristic solid state IR spectrum (KBr pellet) (FIG. 2) and x-ray diffraction pattern (FIG. 3).

CC[C@H]1OC(=O)[C@H](C)[C@@H](O[C@H]2C[C@@](C)(OC)[C@@H](O)[C@H](C)O2)[C@H](C)[C@@H](O[C@@H]2O[C@H](C)C[C@H](N(C)C)[C@H]2O)[C@@](C)(O)C[C@@H](C)CN(C)[C@H](C)[C@@H](O)[C@]1(C)O [Azithromycin, 9-Deoxo-9a-aza-9a-methyl-9a-homo-Eryhromycin A]
activity against gram negative organisms compared to Erythromycin A (gram negative organisms): significant improvement in its activity

CC[C@H]1OC(=O)[C@H](C)[C@@H](O[C@H]2C[C@@](C)(OC)[C@@H](O)[C@H](C)O2)[C@H](C)[C@@H](O[C@@H]2O[C@H](C)C[C@H](N(C)C)[C@H]2O)[C@](C)(O)C[C@@H](C)CN(C)[C@H](C)[C@@H](O)[C@]1(C)O [azithromycin dihydrate, Azithromycin dihydrate]
change in moisture content on exposure to ambient atmosphere ([1]; dihydrate crystals dried under vacuum at 50° C., then exposed to ambient atmosphere): no change in the moisture content

CC[C@H]1OC(=O)[C@H](C)[C@@H](O[C@H]2C[C@@](C)(OC)[C@@H](O)[C@H](C)O2)[C@H](C)[C@@H](O[C@@H]2O[C@H](C)C[C@H](N(C)C)[C@H]2O)[C@](C)(O)C[C@@H](C)CN(C)[C@H](C)[C@@H](O)[C@]1(C)O [azithromycin monohydrate, Azithromycin monohydrate]
moisture content reached on exposure to ambient atmosphere ([1]; exposure to ambient atmosphere, 48 hrs, water content after drying 3.42% (Karl Fischer)): 5.4%
